From patent US20250298027A1, “METHOD OF EVALUATING SMALL MOLECULE DISTRIBUTION USING TELLUROPHENE ANALOGUES” (THE GOVERNING COUNCIL OF THE UNIVERSITY OF TORONTO, priority 2022, published 2025)

Assays:
pH2AX^Ser139 = assay: pH2AX immunohistochemistry of PANC-1 xenograft tumour sections; format: in vivo, mice; conditions: 20 mg/kg IP, 2 hours
Experimental: PANC-1 xenograft-bearing mice were injected with either teniposide or the Te-teniposide analogue 1 IP. A dose of 20 mg/kg was selected based on literature reports detailing teniposide drug delivery strategies. After 2 hours, mice were sacrificed and tissues of interest were harvested, formalin fixed, and paraffin embedded. Tissue sections (5 um) were cut and mounted onto microscopy slides. The expression of pH2AX^Ser139 levels were first assessed by immunohistochemistry. Serial sections derived from PANC-1 xenograft tumours were stained with primary antibody and subsequently HRP-conjugated secondary antibody for standard brown staining. DSBs are indicated by large, discrete pH2AX^Ser139 foci. Representative images of immunostained slides show increased pH2AX^Ser139 levels in treated mice relative to saline injected control with clear, punctate staining (FIG. 7).

PANC-1 cells = assay: alamarBlue viability assay in PANC-1 cells; format: cell-based, Human; conditions: maximum dose of 25 μM, 72 hours exposure
Experimental: Similarly, PANC1 cells were characterized for later in vivo experiments. Using an alamarBlue viability assay and a proliferative assay, PANC-1 cells were incubated with 1 or teniposide.
AlamarBlue assay: PANC-1 cells were seeded into black, clear-bottom 96-well assay plates (Corning; CLS3603) and incubated for 24 hours. The medium was replaced with […] of teniposide or compound 1. After 72 hours exposure to drug, alamarBlue (Thermo Fisher Scientific; DAL1100) cell viability reagent was added and incubated for 4 hours at 37° C. Fluorescence intensity was measured using an excitation wavelength of 560 nm and an emission of 590 nm. Cell viability was calculated by normalizing to an untreated control.

[1] = IMC analysis of tellurium in PANC-1 xenograft tumour sections
Text: For IMC™ analysis, the initial objective was to visualize tellurium signal distribution in tumour sections and subsequently measure relative tellurium content in individual cells. Tumour sections were dewaxed, rehydrated and washed. Slides then were stained with Ir-intercalator to visualize cell nuclei, and then imaged by IMC™. The ^125Te isotope was visualised. […] Without wishing to be bound by theory, it was hypothesized that the processing of the FFPE tissues contributes to loss of tellurium signal as the teniposide interaction with the cells is largely non-covalent, thus the multiple wash steps required for dewaxing (xylene and ethanol washes) might have removed bound 1. To reduce the number of tissue processing steps, snap frozen samples prepared from the same tumours were sectioned and analyzed by IMC™.
To determine the corresponding concentration of Te present in the sample a set of standards containing increasing concentrations of Te were analyzed by IMC™. Based on the total counts present in each standard Te spot a count/Te atom constant was calculated (FIG. 8E).
Generation of murine PANC-1 xenograft model: All 6-week-old female NOD SCID mice (Charles River (Wilmington, MA) were maintained under specific pathogen-free (SPF) conditions at the Princess Margaret Cancer Centre (PMCC) facility. All animal experiments in this study were performed in accordance with the Animal Research Committee guidelines of the University Health Network institution. The subcutaneous PANC-1 xenograft mice were generated as described previously in Telox studies. The vehicle was prepared as follows: 30 mg benzyl alcohol, 60 mg N,N-dimethylacetamide, 500 mg purified Cremophor EL (Kolliphor EL), and 2.1 mL dehydrated alcohol were combined in a vial. The solution was topped with distilled water for a final volume of 5 mL. The pH of the clear solution is adjusted to pH ˜5 with maleic acid. For injections, drug was diluted with vehicle for a final concentration of 10 mg/mL and administered at 20 mg/kg by I.P. The mice were maintained in three groups; group 1 mice were injected with teniposide, group 2 received 1, and group 3 with normal saline. After 2 hours, mice were scarified, and tumors were extracted. […]

Top2 = target: T1, Top2 (Homo sapiens, UniProt P11388); assay: Top2 decatenation assay using kinetoplast DNA; format: biochemical
T1 construct: purchased TopoGEN, Inc
T1 sequence (P11388 whole entry): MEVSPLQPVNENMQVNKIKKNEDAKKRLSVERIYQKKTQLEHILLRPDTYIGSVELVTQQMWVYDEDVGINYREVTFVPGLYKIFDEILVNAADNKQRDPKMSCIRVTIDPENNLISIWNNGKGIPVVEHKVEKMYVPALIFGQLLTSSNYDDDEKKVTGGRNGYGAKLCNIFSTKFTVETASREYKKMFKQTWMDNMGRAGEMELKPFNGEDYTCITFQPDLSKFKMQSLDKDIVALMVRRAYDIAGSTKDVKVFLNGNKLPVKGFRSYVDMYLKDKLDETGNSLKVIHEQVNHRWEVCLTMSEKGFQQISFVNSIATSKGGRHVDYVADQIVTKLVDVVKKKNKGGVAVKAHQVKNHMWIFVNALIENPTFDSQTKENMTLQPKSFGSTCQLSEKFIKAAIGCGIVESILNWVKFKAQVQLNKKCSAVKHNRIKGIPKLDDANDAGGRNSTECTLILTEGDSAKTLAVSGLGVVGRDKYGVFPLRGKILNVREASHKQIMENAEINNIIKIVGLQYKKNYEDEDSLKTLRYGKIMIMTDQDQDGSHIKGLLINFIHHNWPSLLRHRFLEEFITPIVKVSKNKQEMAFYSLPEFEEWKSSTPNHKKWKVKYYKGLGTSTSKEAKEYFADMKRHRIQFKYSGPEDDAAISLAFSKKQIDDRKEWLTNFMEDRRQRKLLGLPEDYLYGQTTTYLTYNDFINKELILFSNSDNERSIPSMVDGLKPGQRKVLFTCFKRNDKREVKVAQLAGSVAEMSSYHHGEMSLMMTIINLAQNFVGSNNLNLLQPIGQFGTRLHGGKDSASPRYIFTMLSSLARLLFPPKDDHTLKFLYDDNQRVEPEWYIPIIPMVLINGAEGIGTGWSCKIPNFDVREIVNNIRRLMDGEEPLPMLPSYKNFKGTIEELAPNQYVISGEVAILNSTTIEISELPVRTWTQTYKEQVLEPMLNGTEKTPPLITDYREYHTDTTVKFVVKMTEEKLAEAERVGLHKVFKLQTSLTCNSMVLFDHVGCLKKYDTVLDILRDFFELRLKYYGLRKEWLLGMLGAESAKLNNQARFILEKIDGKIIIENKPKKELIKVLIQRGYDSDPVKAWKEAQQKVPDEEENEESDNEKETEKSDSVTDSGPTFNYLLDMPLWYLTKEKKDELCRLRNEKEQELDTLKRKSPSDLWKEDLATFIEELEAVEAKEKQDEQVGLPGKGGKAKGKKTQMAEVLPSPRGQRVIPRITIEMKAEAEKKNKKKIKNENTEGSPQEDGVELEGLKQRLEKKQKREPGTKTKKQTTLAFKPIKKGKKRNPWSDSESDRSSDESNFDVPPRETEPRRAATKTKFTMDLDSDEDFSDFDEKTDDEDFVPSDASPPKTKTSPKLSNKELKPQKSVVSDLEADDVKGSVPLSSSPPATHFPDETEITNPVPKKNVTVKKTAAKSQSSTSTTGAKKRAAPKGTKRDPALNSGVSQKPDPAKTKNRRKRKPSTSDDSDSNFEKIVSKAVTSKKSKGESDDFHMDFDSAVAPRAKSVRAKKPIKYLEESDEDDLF
Experimental: The relative Top2 inhibitory activity of 1 in comparison to teniposide was evaluated in decatenation assays using kinetoplast DNA (kDNA). Decatenation of the DNA, catalyzed by Top2, can be readily resolved using agarose gel electrophoresis.
Top2 decatenation assay: The assay was performed according to manufacturer's protocol (TopoGEN, Inc.). The total reaction volume was 20 μL of assay buffer (120 mM KCl, 50 mM Tris-HCl, 10 mM MgCl2, 0.5 mM DTT, 0.5 mM ATP, and 30 μg/mL BSA) and 120 ng of kinetoplast DNA (kDNA) substrate. One unit of TopoII enzyme in was added to reaction microfuge tubes in the presence or absence of inhibitor. The reaction was incubated for 30 min at 37° C. The reaction was stopped by addition of 5 μL of stop buffer (5% sarkosyl, 0.025% bromophenolblue, and 50% glycerol). The samples were then analyzed using electrophoresis using a 1% agarose gel in Tris-borate-EDTA buffer with 0.5 pg/mL ethidium bromide stain. Gels were imaged using Syngene G: Box Gel Imager (Chemi-XT4 GENESys software with preset for ethidium bromide stained agarose gels). Band intensities were analyzed using ImageJ software.

HL-60 cells = assay: WST-1 viability assay in HL-60 cells; format: cell-based; conditions: Homo sapiens, HL-60, 24 h, read-out: inhibition of proliferation of HL-60 cells
Experimental: The toxicity of 1 was compared to teniposide in HL-60 cells after incubation for 24 hours using a WST-1 viability assay.
WST-1 metabolic cytotoxicity assay: HL-60 cells (ATCC® CCL-240TM) were maintained in DMEM media with 2 mM L-glutamine (Gibco) supplemented with 20% calf serum and 100× dilution of penicillin-streptomycin solution (Gibco). Cells were maintained at 37° C. in a humidified atmosphere of 5% CO2 in air. HL-60 cells (100 pL) were seeded into a 96 well clear at a density of 5×10^5 cells/mL. Cells were treated with either DMSO or appropriate inhibitor from DMSO stocks. […] Cells were incubated for 24 h at 37° C. under a 5% CO2 atmosphere. WST-1 reagent (10 pL; Roche Diagnostics, 05015944001) was added to each well and gently mixed by pipetting. Cells were incubated for 1 h at 37° C. under 5% CO2 atmosphere. UV-vis absorbance measurements of each well at 450 nm was recorded using a TECAN Safire 2 plate reader. Data was background corrected against wells that contained cell growth media without cells and WST-1. Experiment was performed in triplicate.

Compound: COc1cc([C@@H]2c3cc4c(cc3[C@@H](OC3OC5COC(c6ccc[te]6)OC5C(O)C3O)[C@H]3COC(=O)C23)OCO4)cc(OC)c1O (stereo partly drawn) [Compound 1, Tellurium-labelled teniposide]
- pH2AX^Ser139 levels in tumour sections relative to saline injected control (pH2AX^Ser139): increased
- loss of cell viability in PANC-1 cells (PANC-1 cells): almost complete loss of cell viability
- ^125Te signal in snap frozen tumour sections by IMC ([1]; 20 mg/kg IP, 2 h before sacrifice, frozen sections): signals were observed
- Te signal in FFPE tumour sections by IMC ([1]; 20 mg/kg IP, 2 hours, FFPE sections, ^125Te): no Te signal above background
- Te signal in samples collected at later timepoints after dosing ([1]; frozen sections, later timepoints): not observed
- average concentration in the tissue ([1]; frozen tumour sections, at the time of analysis, no precise value): low tens
- IC50 (Top2): 5.6 µM
- inhibition of the decatenation reaction (Top2; 5, 10, 25 and 50 μM): dose-dependent inhibition
- inhibition at 50 µM (HL-60 cells): ≤ 60%
